{"source": "patent US20220118116A1", "about": "“ADHESIVE/ADSORPTION SWITCH ON NANOPARTICLES TO INCREASE TUMOR UPTAKE AND DELAY TUMOR CLEARANCE” (The Johns Hopkins University, priority 2019, published 2022)", "key": {"[1]": {"tested_on": "spontaneous MDA-MB-231 axillary lymph node (ALN) metastases", "assay": "Growth control of spontaneous TNBC metastases in vivo (cisplatin)", "settings": "7.5 mg/Kg i.v., three times in five-day intervals"}, "[2]": {"settings": "Leite et al., 2012; cited from earlier work"}, "MDA-MB-436 (ATCC)": {"tested_on": "MDA-MB-436 (ATCC)", "assay": "IC50 on cell monolayers (MTT assay)", "type": "cell-based, human", "settings": "6-hour incubation, read-out: IC50 of free cisplatin", "experimental": "(§1) To determine the IC50 of liposomal cisplatin and of free cisplatin, 20,000 cells per well were plated in 96-well plates. A range of concentrations of sterilized liposomes (containing or not cisplatin) or of free cisplatin was added to the wells mixed in media (with 10% FBS) at pH 7.4 and pH 6.5. Upon completion of a 6-hour incubation, cells were washed twice with PBS, and 10% FBS-supplemented fresh media was then added to wells. After two doubling times an MTT assay (Promega, Madison, Wis.) was used (following the vendor's instructions) to evaluate percent cell viability. Absorbance was read at 570 nm.\nas §1, with “sterile” for “sterilized”, “6 hour” for “6-hour”"}, "MDA-MB-231 (ALN2)": {"tested_on": "MDA-MB-231 (ALN2)", "assay": "IC50 on cell monolayers (MTT assay)", "type": "cell-based, human", "settings": "6-hour incubation, read-out: IC50 of free cisplatin", "experimental": "as §1\nas §1, with “sterile” for “sterilized”, “6 hour” for “6-hour”"}, "MDA-MB-231 (ATCC)": {"tested_on": "MDA-MB-231 (ATCC)", "assay": "IC50 on cell monolayers (MTT assay)", "type": "cell-based, human", "settings": "6-hour incubation, read-out: IC50 of free cisplatin", "experimental": "as §1\nas §1, with “sterile” for “sterilized”, “6 hour” for “6-hour”"}, "MDA-MB-231 (LUNG1)": {"tested_on": "MDA-MB-231 (LUNG1)", "assay": "IC50 on cell monolayers (MTT assay)", "type": "cell-based, human", "settings": "6-hour incubation, read-out: IC50 of free cisplatin", "experimental": "as §1\nas §1, with “sterile” for “sterilized”, “6 hour” for “6-hour”"}, "MDA-MB-231 (PRI3)": {"tested_on": "MDA-MB-231 (PRI3)", "assay": "IC50 on cell monolayers (MTT assay)", "type": "cell-based, human", "settings": "6-hour incubation, read-out: IC50 of free cisplatin", "experimental": "as §1\nas §1, with “sterile” for “sterilized”, “6 hour” for “6-hour”"}}, "note": "Like-named read-outs stand apart in the source and are kept apart here.", "data": [{"smiles": "N.N.[Cl][Pt][Cl]", "note": "[free cisplatin, cis-diamminedichloroplatinum (II)]", "values": [{"measurement": "animal survival", "setting": "[1]", "value": "shortest animal survival"}, {"measurement": "animals euthanized because of weight loss", "setting": "[1]", "value": 100, "unit": "%"}, {"measurement": "reported MTD", "setting": "[2]", "value": 7.5, "unit": "mg/kg"}, {"measurement": "IC50", "setting": "MDA-MB-436 (ATCC); pH 6.5", "value": "3.2 ± 0.73", "unit": "µM"}, {"measurement": "IC50", "setting": "MDA-MB-436 (ATCC); pH 7.4", "value": "2.46 ± 0.9", "unit": "µM"}, {"measurement": "IC50", "setting": "MDA-MB-231 (ALN2); pH 6.5", "value": "40.2 ± 7.4", "unit": "µM"}, {"measurement": "IC50", "setting": "MDA-MB-231 (ALN2); pH 7.4", "value": "39.2 ± 5.9", "unit": "µM"}, {"measurement": "IC50", "setting": "MDA-MB-231 (ATCC); pH 6.5", "value": "47.7 ± 4.4", "unit": "µM"}, {"measurement": "IC50", "setting": "MDA-MB-231 (ATCC); pH 7.4", "value": "45.2 ± 8.2", "unit": "µM"}, {"measurement": "IC50", "setting": "MDA-MB-231 (LUNG1); pH 6.5", "value": "42.6 ± 6.2", "unit": "µM"}, {"measurement": "IC50", "setting": "MDA-MB-231 (LUNG1); pH 7.4", "value": "40.2 ± 6.4", "unit": "µM"}, {"measurement": "IC50", "setting": "MDA-MB-231 (PRI3); pH 6.5", "value": "37.7 ± 13.4", "unit": "µM"}, {"measurement": "IC50", "setting": "MDA-MB-231 (PRI3); pH 7.4", "value": "32.4 ± 7.8", "unit": "µM"}]}]}
